From patent US10370433B2, “Compositions and methods for diagnosis and treatment of cancer” (BIONTECH AG, priority 2015, dated 2019)
Positions of bridges follow the written chain, without caps; N, C: chain ends. Residues, ends and D or L forms follow the SMILES beside them.

Molecular target: T1, recombinant human Seprase (rhuSeprase) (Homo sapiens, UniProt Q12884)
T1 construct: named pCEP4-IgKappa-huSeprase-coCHO_26-760aa-H6 and used for the generation of recombinant soluble human Seprase (rhuSeprase); mouse Ig kappa-chain V-J2-C secretion signal (N, cleaved yes); made in house; host or cells: FreeStyle CHO-S cells (transient transfection; purified from supernatant by Ni-chelate and SEC)
T1 sequence (Q12884 26-760): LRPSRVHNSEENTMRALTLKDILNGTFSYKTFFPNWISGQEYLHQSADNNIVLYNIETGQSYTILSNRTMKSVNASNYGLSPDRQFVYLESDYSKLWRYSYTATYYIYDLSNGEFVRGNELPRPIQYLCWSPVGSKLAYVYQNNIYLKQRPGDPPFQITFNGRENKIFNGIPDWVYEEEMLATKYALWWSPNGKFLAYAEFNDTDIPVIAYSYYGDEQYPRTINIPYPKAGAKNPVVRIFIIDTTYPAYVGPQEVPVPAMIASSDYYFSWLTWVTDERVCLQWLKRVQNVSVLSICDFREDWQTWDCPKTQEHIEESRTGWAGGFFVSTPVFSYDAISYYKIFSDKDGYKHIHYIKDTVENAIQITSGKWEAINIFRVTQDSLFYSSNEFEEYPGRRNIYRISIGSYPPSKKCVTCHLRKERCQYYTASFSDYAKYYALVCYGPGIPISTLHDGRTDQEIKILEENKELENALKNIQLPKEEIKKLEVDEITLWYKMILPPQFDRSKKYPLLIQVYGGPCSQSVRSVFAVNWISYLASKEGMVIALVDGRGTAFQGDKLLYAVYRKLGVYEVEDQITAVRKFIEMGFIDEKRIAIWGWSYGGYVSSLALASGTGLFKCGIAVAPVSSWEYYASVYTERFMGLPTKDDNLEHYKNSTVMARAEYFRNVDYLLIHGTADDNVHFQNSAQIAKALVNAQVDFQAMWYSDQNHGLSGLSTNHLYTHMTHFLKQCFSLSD
Assay: Surface plasmon resonance (Biacore T100) on immobilized rhuSeprase
Type: binding
Settings: for kon: read-out: ka (1/Ms)

| Compound | kd | kon | offrate, times slower compared to MC-FA-012 |
| --- | --- | --- | --- |
| CC[C@H](C)[C@@H]1NC(=O)[C@@H]2CSSC[C@H](NC(=O)[C@H](C)NC(=O)CNC(=O)[C@H](CO)NC(=O)CN)C(=O)N3CCC[C@H]3C(=O)N[C@@H](Cc3ccc(O)cc3)C(=O)N[C@@H](CO)C(=O)N[C@@H](CC(N)=O)C(=O)N[C@@H](Cc3c[nH]c4ccccc34)C(=O)N[C@@H](C)C(=O)N[C@@H](C(C)C)C(=O)NCC(=O)N[C@@H](CCCNC(=N)N)C(=O)NCC(=O)N3CCC[C@H]3C(=O)N[C@@H](CO)C(=O)N[C@H]3CSSC[C@H](NC1=O)C(=O)N[C@@H](CCCNC(=N)N)C(=O)NCC(=O)N[C@@H](CC(N)=O)C(=O)NCC(=O)N[C@@H](Cc1ccc(O)cc1)C(=O)N[C@H](C(=O)NCC(=O)O)CSSC[C@H](NC(=O)[C@H](CC(=O)O)NC(=O)[C@H](CO)NC(=O)[C@H](CC(=O)O)NC(=O)[C@H](CCCNC(=N)N)NC(=O)[C@H](CCCNC(=N)N)NC3=O)C(=O)N1CCC[C@H]1C(=O)NCC(=O)N[C@@H](CCCNC(=N)N)C(=O)N2 [FA8-F04] (H-GSGACPYSNWAVGRGPSCRRDSDCPGRCICRGNGYCG-OH; disulfide 5-28, 18-30, 24-36; N-terminus and C-terminus assumed) | 0.2003 s⁻¹ | 624000 M⁻¹ s⁻¹ | – |
| CC[C@H](C)[C@@H]1NC(=O)[C@@H]2CSSC[C@H](NC(=O)[C@H](C)NC(=O)CNC(=O)[C@H](CO)NC(=O)CN)C(=O)N3CCC[C@H]3C(=O)N[C@@H](Cc3ccc(O)cc3)C(=O)N[C@@H]([C@@H](C)O)C(=O)N[C@@H](CC(N)=O)C(=O)N[C@@H](Cc3c[nH]c4ccccc34)C(=O)N[C@@H](CCCNC(=N)N)C(=O)N3CCC[C@H]3C(=O)NCC(=O)N[C@@H](CCCNC(=N)N)C(=O)NCC(=O)N3CCC[C@H]3C(=O)N[C@@H](C)C(=O)N[C@H]3CSSC[C@H](NC1=O)C(=O)N[C@@H](CCCNC(=N)N)C(=O)NCC(=O)N[C@@H](CC(N)=O)C(=O)NCC(=O)N[C@@H](Cc1ccc(O)cc1)C(=O)N[C@H](C(=O)NCC(=O)O)CSSC[C@H](NC(=O)[C@H](CC(=O)O)NC(=O)[C@H](CO)NC(=O)[C@H](CC(=O)O)NC(=O)[C@H](CCCNC(=N)N)NC(=O)[C@H](CCCNC(=N)N)NC3=O)C(=O)N1CCC[C@H]1C(=O)NCC(=O)N[C@@H](CCCNC(=N)N)C(=O)N2 [FA8-C09] (H-GSGACPYTNWRPGRGPACRRDSDCPGRCICRGNGYCG-OH; disulfide 5-28, 18-30, 24-36; N-terminus and C-terminus assumed) | 2.935 s⁻¹ | 9.92e+06 M⁻¹ s⁻¹ | – |
| CC[C@H](C)[C@@H]1NC(=O)[C@@H]2CSSC[C@H](NC(=O)[C@H](C)NC(=O)CNC(=O)[C@H](CO)NC(=O)CN)C(=O)N3CCC[C@H]3C(=O)N[C@@H](Cc3ccc(O)cc3)C(=O)N[C@@H](CO)C(=O)N[C@@H](CCCNC(=N)N)C(=O)N[C@@H](Cc3c[nH]c4ccccc34)C(=O)N[C@@H](CCSC)C(=O)N3CCC[C@H]3C(=O)NCC(=O)N[C@@H](CCCNC(=N)N)C(=O)NCC(=O)N3CCC[C@H]3C(=O)N[C@@H](CO)C(=O)N[C@H]3CSSC[C@H](NC1=O)C(=O)N[C@@H](CCCNC(=N)N)C(=O)NCC(=O)N[C@@H](CC(N)=O)C(=O)NCC(=O)N[C@@H](Cc1ccc(O)cc1)C(=O)N[C@H](C(=O)NCC(=O)O)CSSC[C@H](NC(=O)[C@H](CC(=O)O)NC(=O)[C@H](CO)NC(=O)[C@H](CC(=O)O)NC(=O)[C@H](CCCNC(=N)N)NC(=O)[C@H](CCCNC(=N)N)NC3=O)C(=O)N1CCC[C@H]1C(=O)NCC(=O)N[C@@H](CCCNC(=N)N)C(=O)N2 [FA7-A05] (H-GSGACPYSRWMPGRGPSCRRDSDCPGRCICRGNGYCG-OH; disulfide 5-28, 18-30, 24-36; N-terminus and C-terminus assumed) | 0.05035 s⁻¹ | 246000 M⁻¹ s⁻¹ | – |
| CC[C@H](C)[C@@H]1NC(=O)[C@@H]2CSSC[C@H](NC(=O)[C@H](C)NC(=O)CNC(=O)[C@H](CO)NC(=O)CNC(=O)CON=CC(=O)NCCCC[C@H](NC(=O)[C@H](CO)NC(=O)CNC(=O)[C@H](CO)NC(=O)CNC(=O)[C@H](CCCCNC(=O)C=NOCC(=O)NCC(=O)N[C@@H](CO)C(=O)NCC(=O)N[C@@H](C)C(=O)N[C@H]3CSSC[C@@H]4NC(=O)[C@H](CCCNC(=N)N)NC(=O)CNC(=O)[C@@H]5CCCN5C(=O)[C@@H]5CSSC[C@@H](C(=O)NCC(=O)O)NC(=O)[C@H](Cc6ccc(O)cc6)NC(=O)CNC(=O)[C@H](CC(N)=O)NC(=O)CNC(=O)[C@H](CCCNC(=N)N)NC(=O)[C@H](CSSC[C@H](NC(=O)[C@H](CC(=O)O)NC(=O)[C@@H]6CCCN6C(=O)CNC(=O)[C@H](CCCNC(=N)N)NC(=O)CNC(=O)[C@@H]6CCCN6C(=O)[C@H]([C@@H](C)O)NC(=O)[C@H](Cc6c[nH]c7ccccc67)NC(=O)[C@H](CC(N)=O)NC(=O)[C@H](CO)NC(=O)[C@H](Cc6ccc(O)cc6)NC(=O)[C@@H]6CCCN6C3=O)C(=O)N[C@@H](CCCNC(=N)N)C(=O)N[C@@H](CCCNC(=N)N)C(=O)N[C@@H](CC(=O)O)C(=O)N[C@@H](CO)C(=O)N[C@@H](CC(=O)O)C(=O)N5)NC(=O)[C@H]([C@@H](C)CC)NC4=O)NC(=O)[C@H](CO)NC(=O)CNC(=O)[C@H](CO)NC(=O)CNC(=O)[C@H](CCCCNC(=O)C=NOCC(=O)NCC(=O)N[C@@H](CO)C(=O)NCC(=O)N[C@@H](C)C(=O)N[C@H]3CSSC[C@@H]4NC(=O)[C@H](CCCNC(=N)N)NC(=O)CNC(=O)[C@@H]5CCCN5C(=O)[C@@H]5CSSC[C@@H](C(=O)NCC(=O)O)NC(=O)[C@H](Cc6ccc(O)cc6)NC(=O)CNC(=O)[C@H](CC(N)=O)NC(=O)CNC(=O)[C@H](CCCNC(=N)N)NC(=O)[C@H](CSSC[C@H](NC(=O)[C@H](CC(=O)O)NC(=O)[C@@H]6CCCN6C(=O)CNC(=O)[C@H](CCCNC(=N)N)NC(=O)CNC(=O)[C@@H]6CCCN6C(=O)[C@H]([C@@H](C)O)NC(=O)[C@H](Cc6c[nH]c7ccccc67)NC(=O)[C@H](CC(N)=O)NC(=O)[C@H](CO)NC(=O)[C@H](Cc6ccc(O)cc6)NC(=O)[C@@H]6CCCN6C3=O)C(=O)N[C@@H](CCCNC(=N)N)C(=O)N[C@@H](CCCNC(=N)N)C(=O)N[C@@H](CC(=O)O)C(=O)N[C@@H](CO)C(=O)N[C@@H](CC(=O)O)C(=O)N5)NC(=O)[C@H]([C@@H](C)CC)NC4=O)NC(=O)[C@H](CO)NC(=O)CNC(=O)[C@H](CO)NC(=O)CNC(=O)CN3CCN(CC(=O)O)CCN(CC(=O)O)CCN(CC(=O)O)CC3)C(=O)O)C(=O)N3CCC[C@H]3C(=O)N[C@@H](Cc3ccc(O)cc3)C(=O)N[C@@H](CO)C(=O)N[C@@H](CC(N)=O)C(=O)N[C@@H](Cc3c[nH]c4ccccc34)C(=O)N[C@@H]([C@@H](C)O)C(=O)N3CCC[C@H]3C(=O)NCC(=O)N[C@@H](CCCNC(=N)N)C(=O)NCC(=O)N3CCC[C@H]3C(=O)N[C@@H](CC(=O)O)C(=O)N[C@H]3CSSC[C@H](NC1=O)C(=O)N[C@@H](CCCNC(=N)N)C(=O)NCC(=O)N[C@@H](CC(N)=O)C(=O)NCC(=O)N[C@@H](Cc1ccc(O)cc1)C(=O)N[C@H](C(=O)NCC(=O)O)CSSC[C@H](NC(=O)[C@H](CC(=O)O)NC(=O)[C@H](CO)NC(=O)[C@H](CC(=O)O)NC(=O)[C@H](CCCNC(=N)N)NC(=O)[C@H](CCCNC(=N)N)NC3=O)C(=O)N1CCC[C@H]1C(=O)NCC(=O)N[C@@H](CCCNC(=N)N)C(=O)N2 (single isomer, unassigned) [DOTA-(MC-FA-012)3] | – | 2.11e+07 M⁻¹ s⁻¹ | around 530 times |
| CC[C@H](C)[C@@H]1NC(=O)[C@@H]2CSSC[C@H](NC(=O)[C@H](C)NC(=O)CN)C(=O)N3CCC[C@H]3C(=O)N[C@@H](Cc3ccc(O)cc3)C(=O)N[C@@H](CO)C(=O)N[C@@H](CC(N)=O)C(=O)N[C@@H](Cc3c[nH]c4ccccc34)C(=O)N[C@@H]([C@@H](C)O)C(=O)N3CCC[C@H]3C(=O)NCC(=O)N[C@@H](CCCNC(=N)N)C(=O)NCC(=O)N3CCC[C@H]3C(=O)N[C@@H](CC(=O)O)C(=O)N[C@H]3CSSC[C@H](NC1=O)C(=O)N[C@@H](CCCNC(=N)N)C(=O)NCC(=O)N[C@@H](CC(N)=O)C(=O)NCC(=O)N[C@@H](Cc1ccc(O)cc1)C(=O)N[C@H](C(=O)NCC(=O)O)CSSC[C@H](NC(=O)[C@H](CC(=O)O)NC(=O)[C@H](CO)NC(=O)[C@H](CC(=O)O)NC(=O)[C@H](CCCNC(=N)N)NC(=O)[C@H](CCCNC(=N)N)NC3=O)C(=O)N1CCC[C@H]1C(=O)NCC(=O)N[C@@H](CCCNC(=N)N)C(=O)N2 [MC-FA-012] (H-GACPYSNWTPGRGPDCRRDSDCPGRCICRGNGYCG-OH; disulfide 3-26, 16-28, 22-34; N-terminus and C-terminus assumed) | – | 408000 M⁻¹ s⁻¹ | – |
